Values of other authors in US8791095B2, “Steroidal CYP17 inhibitors/antiandrogens” (Tokai Pharmaceuticals, Inc., priority 2009, dated 2014).

Tests used:
human CYP17 enzyme = molecular target: T1, human CYP17 enzyme (Homo sapiens, UniProt P05093); conditions: read-out: IC50, inhibition of human CYP17 enzyme
T1 sequence (P05093 1-508): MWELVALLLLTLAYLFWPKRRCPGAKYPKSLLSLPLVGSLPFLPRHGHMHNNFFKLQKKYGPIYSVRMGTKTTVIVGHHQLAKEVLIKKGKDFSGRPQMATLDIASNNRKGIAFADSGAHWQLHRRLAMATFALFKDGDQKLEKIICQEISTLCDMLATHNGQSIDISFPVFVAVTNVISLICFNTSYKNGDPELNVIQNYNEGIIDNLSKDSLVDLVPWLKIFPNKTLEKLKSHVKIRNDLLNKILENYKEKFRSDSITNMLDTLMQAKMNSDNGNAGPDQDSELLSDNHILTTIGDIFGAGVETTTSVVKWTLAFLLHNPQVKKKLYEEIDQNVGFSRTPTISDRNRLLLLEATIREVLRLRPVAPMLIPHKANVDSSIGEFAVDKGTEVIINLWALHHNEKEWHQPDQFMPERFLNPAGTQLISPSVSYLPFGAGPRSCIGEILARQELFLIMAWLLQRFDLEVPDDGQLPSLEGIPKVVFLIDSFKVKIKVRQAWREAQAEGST

[1] = tested on: LAPC4 human prostate tumor xenograft; conditions: for inhibition of growth of LAPC4 xenograft (in words): in vivo

Row | SMILES | IC50 (human CYP17 enzyme) [nM] | conversion into a metabolite (metabolite tentatively identified as 17-(1H-benzimidazol-1-yl)androsta-3-one) | peak plasma level (mice, s.c. 50 mg/kg) [ng/mL] | detectability in plasma at 8 hours (mice, s.c. 50 mg/kg) | efficacy compared with castration ([1]; 50 mg/kg, twice daily) | reduction in the mean final tumor volume compared with controls ([1]; 50 mg/kg, twice daily, P=0.00065) [%] | inhibition of growth of LAPC4 xenograft (in words) [1] | terminal half-life in plasma (mice, s.c. 50 mg/kg) [min]
1 | C[C@]12CC[C@H](O)CC1=CC[C@@H]1[C@@H]2CC[C@]2(C)C(n3cnc4ccccc43)=CC[C@@H]12 [Compound 1, 3β-hydroxy-17-(1H-benzimidazole-1-yl)androsta-5,16-diene] | 50 | rapidly converted into a metabolite | 16.82 | neither was detectable | significantly more effective than castration | 93.8 | very effective | 
2 | C[C@]12CCC(=O)C=C1CCC1C2CC[C@]2(C)C(n3cnc4ccccc43)=CCC12 (stereo partly shown) [Compound 2, 17-(1H-benzimidazole-1-yl)androsta-4,16-diene-3-one] |  |  | 5.15 | neither was detectable |  |  | ineffective | 39.93
3 | CC12CCC(O)CC1=CCC1C2CCC2(C)C(c3cncnc3)=CCC12 (stereo not drawn) [Compound 3, 3β-hydroxy-17-(5′-pyrimidyl)androsta-5,16-diene] | 500 |  |  |  |  |  |  | 
4 | C[C@]12CC[C@H](O)CC1=CC[C@@H]1[C@@H]2CC[C@]2(C)C(c3cccnc3)=CC[C@@H]12 [abiraterone, 3β-hydroxy-17-(pyrid-3-yl)androsta-5,16-diene] | 3 to 6 |  |  |  |  |  |  | 
